Assay results taken from patent US20230212164A1, “ANNULATED 2-AMINO-3-CYANO THIOPHENES AND DERIVATIVES FOR THE TREATMENT OF CANCER” (BOEHRINGER INGELHEIM INTERNATIONAL GMBH, priority 2020, published 2023).

Experiments:
[1] = molecular target: T1, protein-protein interaction between SOS1 and KRAS G12C (Homo sapiens, UniProt P01116, C118S/C51S/C80L/G12C); assay: KRAS::SOS1 AlphaScreen binding assay
T1 construct: His6 (N)
Method: KRAS::SOS1 AlphaScreen Binding Assay
Assay buffer: • 1×PBS • 0.1% BSA • 0.05% Tween 20
AlphaLISA Glutathione Acceptor Beads and AlphaScreen Streptavidin Donor Beads are mixed in assay buffer at a concentration of 10 μg/mL (final assay concentration) each prior to use and kept at room temperature.
Compounds are diluted to a final start concentration of 100 μM and are tested in duplicate. […] For compound a start concentration of 100 μM, 150 nL of compound solution is transferred per well in 11 concentrations in duplicate with serial 1:5 dilutions.
The assay is run using a fully automated robotic system in a darkened room below 100 Lux. 10 μL of KRAS::SOS1 GDP mix is added into columns 1-24 to the 150 nL of compound solution (final dilution in the assay 1:100, final DMSO concentration 1%).
After 30 minutes incubation time 5 μL of bead mix is added into columns 1-23. Plates are kept at room temperature in a darkened incubator. After further 60 minutes incubation, the signal is measured using a PerkinElmer Envision HTS Multilabel Reader using the AlphaScreen specifications from PerkinElmer. Each plate contains the following controls: • diluted DMSO+KRAS::SOS1 GDP mix+bead mix • diluted DMSO+KRAS::SOS1 GDP mix
IC50 values are calculated and analyzed using a 4 parametric logistic model.

[2] = tested on: pERK (Thr202/Tyr204) in NCI-H358 (KRAS G12C mutation); assay: ERK phosphorylation assay 1 (AlphaLISA SureFire Ultra p-ERK1/2); conditions: Homo sapiens, NCI-H358, read-out: IC50 H358 pERK
Method: ERK Phosphorylation Assay
Materials Used for the Assay:
AlphaLISA SureFire Ultra p-ERK1/2 (Thr202/Tyr204) Assay Kit (ALSU-PERK-A500)
The cells are incubated for 1 h at room temperature and then incubated overnight in an incubator at 37° C. and 5% CO2 in a humidified atmosphere. 60 nL compound solution (10 mM DMSO stock solution) is then added using a Labcyte Echo 550 device. […] After 20 minutes of incubation at room temperature with shaking, 6 μL of each lysate sample is transferred to a 384-well Proxiplate and analyzed for pERK (Thr202/Tyr204) with the AlphaLISA SureFire Ultra pERK1/2 (Thr202/Tyr204) Assay Kit. 3 μL Acceptor Mix and 3 μL Donor Mix are added under subdued light and incubated for 2 h at room temperature in the dark, before the signal is measured on a PerkinElmer Envision HTS Multilabel Reader. The raw data were imported into and analyzed with the Boehringer Ingelheim proprietary software MegaLab (curve fitting based on the program PRISM, GraphPad Inc.).

T1 sequence (P01116 1-169 isoform P01116-2 G12C/C51S/C80L/C118S): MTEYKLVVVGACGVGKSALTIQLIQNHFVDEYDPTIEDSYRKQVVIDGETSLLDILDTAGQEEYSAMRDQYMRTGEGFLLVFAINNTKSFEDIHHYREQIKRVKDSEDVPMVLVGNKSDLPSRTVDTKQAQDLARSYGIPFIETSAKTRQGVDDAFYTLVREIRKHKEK

| SMILES | IC50 ([1]; Table 35) [nM] | IC50 [2] [nM] | IC50 ([1]; Table 36) [nM] | IC50 ([1]; Table 38) [nM] |
| --- | --- | --- | --- | --- |
| C=CC(=O)N1CCC(c2cc(-c3noc(C4(C)CCCc5sc(N)c(C#N)c54)n3)nc(N3CCN(C)CC3)c2)CC1 (centres unmarked) [Ia-1] | 123 | 31.4 | – | – |
| C=CC(=O)N1CCC(c2cc(-c3noc(C4(C)CCCc5sc(N)c(C#N)c54)n3)nc(N3CCN(C4CCCC4)CC3)c2)CC1 (centres unmarked) [Ia-2] | 336 | 131 | – | – |
| C=CC(=O)N1CCC(Oc2cc(O[C@@H](C)[C@@H]3CCCN3C)nc(-c3noc([C@]4(C)CCCc5sc(N)c(C#N)c54)n3)c2)CC1 [Ia-5] | – | – | 622 | – |
| C=CC(=O)N1[C@H](C)CN(c2cc(-c3noc(C4(C)CCCc5sc(N)c(C#N)c54)n3)nc(N3CCN(C4CCCC4)CC3)c2)C[C@@H]1C (some centres unmarked) [Ia-8] | – | 544 | 1000 | – |
| C=CC(=O)N1C[C@@H]2CN(c3cc(-c4noc(C5(C)CCCc6sc(N)c(C#N)c65)n4)nc(N4CCN(C5CCCC5)CC4)c3)[C@@H]2C1 (some centres unmarked) [Ia-9] | – | 54.6 | 216 | – |
| C=CC(=O)N1CCN(c2cc(-c3noc(C4(C)CCC(C)c5sc(N)c(C#N)c54)n3)nc(N3CCN(C4CCCC4)CC3)c2)CC1 (centres unmarked) [Ia-10] | – | 38.5 | 254 | – |
| C=CC(=O)N1CCN(c2cc(-c3noc([C@@]4(C)CC[C@H](C)c5sc(N)c(C#N)c54)n3)nc(N3CCN(C4CCCC4)CC3)c2)CC1 [Ia-11] | – | 12.3 | 125 | – |
| C=CC(=O)N1CCN(c2cc(-c3noc(C4(C)CCC(C)c5sc(N)c(C#N)c54)n3)nc(N3CCN(C)CC3)c2)CC1 (centres unmarked) [Ia-12] | – | 13.5 | 117 | – |
| C=CC(=O)N1CCN(c2cc(-c3noc([C@]4(C)CCCc5sc(N)c(C#N)c54)n3)nc(N3CCN(C)C[C@@H]3C)c2)CC1 [Ia-13] | – | 7.3 | – | – |
| C=CC(=O)N1CCN(c2cc(-c3noc([C@@]4(C)CCCc5sc(N)c(C#N)c54)n3)nc(N3CCN(C)C[C@@H]3C)c2)CC1 [Ia-14] | – | 2.7 | – | – |
| C=CC(=O)N1CCN(c2cc(-c3noc(C4(C)CCCc5sc(N)c(C#N)c54)n3)nc(N3C4CCC3CN(C)C4)c2)CC1 (centres unmarked) [Ia-16] | – | 24.6 | 106 | – |
| C=CC(=O)N1CCN(c2cc(-c3noc(C4(C)CCCc5sc(N)c(C#N)c54)n3)nc(N3CCN(C4CC4)CC3)c2)CC1 (centres unmarked) [Ia-17] | – | 29.4 | 260 | – |
| C=CC(=O)N1CCN(c2cc(-c3noc(C4(C)CCCc5sc(N)c(C#N)c54)n3)nc(N3CCN(C4COC4)CC3)c2)CC1 (centres unmarked) [Ia-18] | – | 57.4 | 364 | – |
| C=CC(=O)N1CCN(c2cc(-c3noc(C4(C)CCCc5sc(N)c(C#N)c54)n3)nc(N3CC[C@H](N4CCCC4)C3)c2)CC1 (some centres unmarked) [Ia-20] | – | 20.7 | 130 | – |
| C=CC(=O)N1CCN(c2cc(-c3noc(C4(C)CCCc5sc(N)c(C#N)c54)n3)nc(N3CCN(C4CCC(F)(F)CC4)CC3)c2)CC1 (centres unmarked) [Ia-24] | – | 80.1 | 406 | – |
| C=CC(=O)N1CCN(c2cc(-c3noc(C4(C)CCCc5sc(N)c(C#N)c54)n3)nc(N3CCN(C)CC34CC4)c2)CC1 (centres unmarked) [Ia-25] | – | 112 | 186 | – |
| C=CC(=O)N1CCN(c2cc(-c3noc(C4CCCc5sc(N)c(C#N)c54)n3)nc(N3CCN(C)CC3)c2)CC1 (centres unmarked) [Ia-27] | – | 61.6 | 240 | – |

| SMILES | IC50 ([1]; Table 35) [nM] | IC50 [2] [nM] | IC50 ([1]; Table 36) [nM] | IC50 ([1]; Table 38) [nM] |
| --- | --- | --- | --- | --- |
| C=CC(=O)N1CCN(c2cc(-c3noc(C4(C)CCCc5sc(N)c(C#N)c54)n3)nc(N3CCN(C4CCN(C)CC4)CC3)c2)CC1 (centres unmarked) [Ia-28] | – | 785 | 152 | – |
| C=CC(=O)N1CCC(Oc2cc(-c3noc(C4(C)CCCc5sc(N)c(C#N)c54)n3)nc(N3CCC(N4CCOCC4)CC3)c2)CC1 (centres unmarked) [Ia-30] | – | 20.1 | 103 | – |
| C=CC(=O)N1CCN(c2cc(-c3noc(C4(C)CCCc5sc(N)c(C#N)c54)n3)cc(N3CCC(N4CCOCC4)CC3)c2)CC1 (centres unmarked) [Ia-32] | – | 35.6 | 255 | – |
| C=CC(=O)N1CCN(c2cc(-c3ccncc3)nc(-c3noc(C4(C)CCCc5sc(N)c(C#N)c54)n3)c2)CC1 (centres unmarked) [Ia-33] | – | 50.4 | 442 | – |
| C=CC(=O)N1CCN(c2cc(OCCN(C)C)cc(-c3noc(C4(C)CCCc5sc(N)c(C#N)c54)n3)c2)CC1 (centres unmarked) [Ia-90] | – | – | 250 | – |
| C=CC(=O)N1CC(CN(C)c2cc(-c3noc([C@@]4(C)CCCc5sc(N)c(C#N)c54)n3)nc(N3CCCN(C)C[C@@H]3C)n2)C1 [Ia-93] | – | – | 381 | – |
| C=CC(=O)N1CCC2(CCN(c3cc(-c4noc([C@@]5(C)CCCc6sc(N)c(C#N)c65)n4)nc(N4CCCN(C)C[C@@H]4C)n3)C2)C1 (some centres unmarked) [Ia-96] | – | – | 799 | – |
| C=CC(=O)N1CC2=C(C1)CN(c1cc(-c3noc([C@@]4(C)CCCc5sc(N)c(C#N)c54)n3)nc(N3CCCN(C)C[C@@H]3C)n1)C2 [Ia-102] | – | – | 117 | – |
| C=CC(=O)N1CCC2C1CCN2c1cc(-c2noc([C@@]3(C)CCCc4sc(N)c(C#N)c43)n2)nc(N2CCCN(C)C[C@@H]2C)n1 (some centres unmarked) [Ia-103] | – | – | 143 | – |
| C=CC(=O)N1CCN(c2cc(-c3noc(C4(C)CCC(C)c5sc(N)c(C#N)c54)n3)nc(N3CCN(C)CC3)c2)CC1C (centres unmarked) [Ia-104] | – | 71.8 | 635 | – |
| C=CC(=O)N1CCN(c2cc(-c3noc(C4(C)CCC(C)c5sc(N)c(C#N)c54)n3)nc(N3CCN(CC)CC3)c2)CC1 (centres unmarked) [Ia-105] | – | 14.4 | 145 | – |
| C=CC(=O)N1CCN(c2cc(-c3noc(C4(C)CCC(C)c5sc(N)c(C#N)c54)n3)nc(N3CCN(CC4CC4)CC3)c2)CC1 (centres unmarked) [Ia-106] | – | 25.2 | 180 | – |
| C=CC(=O)N1CCN(c2cc(-c3noc(C4(C)CCCc5sc(N)c(C#N)c54)n3)nc(N3CCN(CC)CC3)c2)CC1C (centres unmarked) [Ia-107] | – | 29.3 | 198 | – |
| C=CC(=O)N1CCN(c2cc(-c3noc(C4(C)CCCc5sc(N)c(C#N)c54)n3)nc(N3CCN(C)CC3)c2)CC1C (centres unmarked) [Ia-108] | – | 19.8 | 182 | – |
| C=CC(=O)NCC1CN(c2cc(-c3noc(C4(C)CCCc5sc(N)c(C#N)c54)n3)nc(N3CCN(C)CC3)c2)C1 (centres unmarked) [Ia-109] | – | 5990 | 943 | – |
| C=CC(=O)N1CCN(c2cc(-c3noc([C@@]4(C)CCCc5sc(N)c(C#N)c54)n3)nc(N3CCN(C)C[C@H]3C)c2)CC1 [Ia-119] | – | 24.2 | – | – |
| CC#CC(=O)N1CCN(c2cc(-c3noc(C4(C)CCCc5sc(N)c(C#N)c54)n3)nc(N3CCN(C)CC3)c2)CC1 (centres unmarked) [Ia-168] | – | – | – | 1020 |

Continued, values first:

| IC50 ([1]; Table 35) [nM] | IC50 [2] [nM] | IC50 ([1]; Table 36) [nM] | IC50 ([1]; Table 38) [nM] | SMILES |
| --- | --- | --- | --- | --- |
| – | 7.4 | 51 | – | C=CC(=O)N1CCN(c2cc(-c3noc(C4(C)CCCc5sc(N)c(C#N)c54)n3)nc(N3C[C@@H](C)N(CC)[C@@H](C)C3)c2)CC1 (some centres unmarked) [Ia-21] |
| – | 6.7 | 40 | – | C=CC(=O)N1CCN(c2cc(-c3noc(C4(C)CCCc5sc(N)c(C#N)c54)n3)nc(N3CCC(N4CCCCC4)C3)c2)CC1 (centres unmarked) [Ia-22] |
| – | 6.5 | 47 | – | C=CC(=O)N1CCN(c2cc(-c3noc(C4(C)CCCc5sc(N)c(C#N)c54)n3)nc(N3CCC(N4CCCC4)C3)c2)CC1 (centres unmarked) [Ia-23] |
| – | 7.8 | 48 | – | C=CC(=O)N1CCN(c2cc(-c3noc(C4(C)CCCc5sc(N)c(C#N)c54)n3)nc(N3CCC(N4CCOCC4)CC3)c2)CC1 (centres unmarked) [Ia-29] |
| – | – | 83 | – | C=CC(=O)N1CCN(c2cc(-c3noc(C4(C)CCCc5sc(N)c(C#N)c54)n3)nc(N3CCN(C(C)(C)C)CC3)c2)CC1 (centres unmarked) [Ia-31] |
| – | 12.2 | 24 | – | C=CC(=O)N1CCN(c2cc(-c3noc(C4(C)CCCc5sc(N)c(C#N)c54)n3)nc(N3CCC(N4CCCC4)CC3)c2)CC1 (centres unmarked) [Ia-36] |
| – | 12.3 | 47 | – | C=CC(=O)N1CCN(c2cc(-c3noc(C4(C)CCCc5sc(N)c(C#N)c54)n3)nc(N3CCC(N4CCCCC4)CC3)c2)CC1 (centres unmarked) [Ia-37] |
| – | 5.8 | 22 | – | C=CC(=O)N1CCN(c2cc(-c3noc(C4(C)CCCc5sc(N)c(C#N)c54)n3)nc(N3CCC(N4CCC(F)C4)CC3)c2)CC1 (centres unmarked) [Ia-38] |
| – | 5.3 | 19 | – | C=CC(=O)N1CCN(c2cc(-c3noc(C4(C)CCCc5sc(N)c(C#N)c54)n3)nc(N3CCC(N4CC[C@H](F)C4)CC3)c2)CC1 (some centres unmarked) [Ia-40] |
| – | 2.8 | 1.8 | – | C=CC(=O)N1CCN(c2cc(-c3noc([C@@]4(C)CCCc5sc(N)c(C#N)c54)n3)nc(N3CCCN(CCCOC)C[C@@H]3C)n2)CC1 [Ia-42] |
| – | – | 6 | – | C=CC(=O)N1CCCN(c2cc(-c3noc([C@@]4(C)CCCc5sc(N)c(C#N)c54)n3)nc(N3CCCN(CCCOC)C[C@@H]3C)n2)CC1 [Ia-45] |
| – | 10 | 51 | – | C=CC(=O)N1CCN(c2cc(-c3noc(C4(C)CCCc5sc(N)c(C#N)c54)n3)nc(N3CCN(C)CC3)c2)CC1 (centres unmarked) [Ia-87] |
| – | – | 48 | – | C=CC(=O)N1CCN(c2cc(OCCN(C)C)nc(-c3noc(C4(C)CCCc5sc(N)c(C#N)c54)n3)c2)CC1 (centres unmarked) [Ia-89] |
| – | 11.6 | 49 | – | C=CC(=O)N1CCC(Oc2cc(-c3noc([C@@]4(C)CCCc5sc(N)c(C#N)c54)n3)nc(N3CCN(C)CC3)c2)CC1 [Ia-91] |
| – | 8.7 | 76 | – | C=CC(=O)N1CCN(c2cc(-c3noc(C4(C)CCCc5sc(N)c(C#N)c54)n3)nc(N3CCN(C(C)C)CC3)c2)CC1 (centres unmarked) [Ia-110] |
| – | – | 71 | – | C=CC(=O)N1CCN(c2cc(-c3noc(C4(C)CCCc5sc(N)c(C#N)c54)n3)nc(N3CCN(C4CCCC4)CC3)c2)CC1 (centres unmarked) [Ia-147] |
